According to patent US12458624B2, “Deuterium-enriched substituted phenoxyphenyl acetic acids and acylsulfonamides” (priority 2019, dated 2025):

Tests used:
male mongrel dogs = assay: Endothelin-1-induced changes in diastolic and urethral pressures in the anesthetized male dog; type: in vivo
Protocol: Methodology for Determining Whether an ET-1 Receptor Selective Antagonist could Inhibit the ET-1 Mediated Prostatic Urethral Contractions in a Mongrel Dog Model:
On separate days, two fasted male mongrel dogs (from commercial suppliers) weighing 11.0 and 12.4 kilograms (kg), are anesthetized with sodium pentobarbital at 35 mg/kg (i.v.) to effect, followed by 4 mg/kg/hr (i.v.) infusion. A cuffed endotracheal tube is inserted and each animal is ventilated with room air using a positive displacement large animal ventilator at a rate of 18 breaths/minute and an average tidal volume of 18 mL/kg body weight. Body temperature is maintained with a heating pad and heat lamp using a temperature controller and esophageal probe. Two catheters are placed in the aorta via the femoral arteries (one in each artery) for administration of endothelin or phenylephrine and for continuous direct monitoring of blood pressure and heart rate using a Statham blood pressure transducer (Spectramed) and a computer system (Modukar Instruments, Inc.). Two other catheters are placed in the vena cava via the femoral veins (one catheters in each vein) for administration of pentobarbital and N-(4-isopropyl (d7)-benzenesulfonyl)-α-(4-carboxy-2-n-propylphenoxy)-3,4-methylenedioxyphenylacetamide dipotassium salt.
A supra-pubic incision approximately one-half inch lateral to the penis is made to expose the ureters, urinary bladder, prostate, and urethra. The dome of the bladder is retracted to facilitate dissection of the ureters. The ureters are cannulated with PE 90 and tied off to the bladder. Umbilical tape is passed beneath the urethra at the bladder neck and another piece of tape is placed approximately 1-2 cm distal to the prostate. The bladder is incised and a Micro-tip catheter transducer is advanced into the urethra. The neck of the bladder is ligated with the umbilical tape to hold the transducer. The bladder incision is sutured with 3-0 silk (purse string suture). The transducer is withdrawn until it is positioned in the prostatic urethra. The position of the Micro-tip catheter is verified by gently squeezing the prostate and noting the large change in urethral pressure prior to ligating the distal urethra.
Phenylephrine (10 μg/kg, intra-arterial) is administered and pressor effects on diastolic blood pressure (DBP) and intra-urethral pressure (IUP) is noted. When blood pressure returned to baseline, endothelin-1 (1 nmole/kg, intra-arterial) is administered. Changes in DBP and IUP are monitored for one hour and an ET-1 selective endothelin antagonist, such as the deuterated compound, N-(4-isopropyl(d7)benzenesulfonyl)-α-(4-carboxy-2-n-propylphenoxy)-3,4-methylenedioxyphenyl-acetamide dipotassium salt (30 mg/kg, intra-venous), is administered. […] Phenylephrine is administered at the end of experiment to verify specificity for ET-1 blockade. The dogs are euthanized with an overdose of pentobarbital followed by saturated KCl.
The drugs utilized in the experiment described above are: • (1) Phenylephrine, HCl (PE) (Sigma Chemical Co.) is given at a volume of 0.05 mL/kg; • (2) Endothelin-1 (ET-1) (Human, Porcine, Canine, rat, Mouse, Bovine) is given at a volume of 0.05 mL/kg; • (3) ET-1 selective antagonist, such as the deuterated compound N-(4-isopropyl(d7)benzenesulfonyl)-α-(4-carboxy-2-n-propyl-[…]phenoxy)-3,4-methylenedioxyphenyl-acetamide dipotassium salt, is given at a volume of 0.3 mL/kg. • All drugs are dissolved in isotonic saline solution.

rat prostate = assay: In situ rat prostate, ET-1 induced contraction; type: in vivo, Sprague-Dawley rats; conditions: ET-1 0.3 nmoles/kg intra-arterial; antagonist IA five minutes before third ET-1 injection
Protocol: Male Sprague-Dawley rats weighing 300-400 grams are anesthetized with urethane (1.75 g/kg, ip), a tracheal cannula is inserted, and the femoral artery is cannulated. Core body temperature is maintained at 37° C. A 4-5 cm midline abdominal incision is made to expose the bladder and prostate. The prostate is separated from the bladder and surrounding capsule by blunt dissection with a forcep. A length of surgical silk is gently secured around the anterior tips of the prostate lobes. A second length of surgical silk attached to an atraumatic needle is passed through and tied to the base of the prostate approximately 10-12 mm posterior to the first tie. The posterior ligature is secured to an anchor post whereas the anterior ligature is connected to a Grass FT03 transducer and maintained at a tension of 1 g. Signals from the transducer are amplified and recorded on a polygraph (Hewlett-Packard 8805B amplifiers and 7758 recorder, Palo Alto, CA). After equilibrating for over 15 min, the rats are administered pretreatment drugs (atropine 1 mg/kg, (+) propranolol 1 mg/kg) 10 min apart through the intra-arterial (IA) cannula. […] The response of the prostate to ET-1 is quantified by measuring the change from baseline tension to the peak of the response during the five-minute period after the third ET-1 injection. […]

[1] = tested on: canine model of renovascular hypertension; conditions: J. Hypertens. 1998, 16, 835-841; cited from earlier work
[2] = 30 mg/kg i.v., ET-1 1 nmole/kg intra-arterial challenge ten to 15 minutes after administration
[3] = PE 10 μg/kg intra-arterial after antagonist 30 mg/kg i.v., one dog
[4] = ET-1 1 nmole/kg intra-arterial, before antagonist, average

[2H]C([2H])([2H])C([2H])(c1ccc(S(=O)(=O)NC(=O)C(Oc2ccc(C(=O)[O-])cc2CCC)c2ccc3c(c2)OCO3)cc1)C([2H])([2H])[2H].[2H]C([2H])([2H])C([2H])(c1ccc(S(=O)(=O)NC(=O)C(Oc2ccc(C(=O)[O-])cc2CCC)c2ccc3c(c2)OCO3)cc1)C([2H])([2H])[2H].[K+].[K+] (stereo not drawn) [N-(4-isopropyl(d7)benzenesulfonyl)-α-(4-carboxy-2-n-propylphenoxy)-3,4-methylenedioxyphenylacetamide Dipotassium Salt]
inhibition of ET-1 depressor effect on DBP (male mongrel dogs; [2]): 70%
inhibition of ET-1 pressor effect on DBP (male mongrel dogs; [2]): 75%
inhibition of ET-1 pressor effect on IUP (male mongrel dogs; [2]): 94%
inhibition of phenylephrine-induced increase in DBP (male mongrel dogs; [3]): 33%
inhibition of phenylephrine-induced increase in IUP (male mongrel dogs; [3]): 11%
hemodynamic and prostatic urethral responses to ET-1 (male mongrel dogs; anesthetized dogs): specifically inhibited
change of intra-arterial phenylephrine-induced increases in DBP and IUP after administration (male mongrel dogs; one dog, specificity check): did not change significantly
effect on ET-1 contraction of the prostate (rat prostate): specific inhibition

CCCCc1nc(Cl)c(CO)n1Cc1ccc(-c2ccccc2-c2nn[nH]n2)cc1 [Losartan]
reduction in mean arterial blood pressure [1]: 20 mmHg

CC[C@H](C)[C@H](NC(=O)[C@H](CC(=O)O)NC(=O)[C@H](CC(C)C)NC(=O)[C@H](Cc1c[nH]cn1)NC(=O)[C@@H]1CSSC[C@H](N)C(=O)N[C@@H](CO)C(=O)N[C@H]2CSSC[C@H](NC(=O)[C@H](CCC(=O)O)NC(=O)[C@H](CCCCN)NC(=O)[C@H](CC(=O)O)NC(=O)[C@H](CCSC)NC(=O)[C@H](CC(C)C)NC(=O)[C@H](CO)NC(=O)[C@H](CO)NC2=O)C(=O)N[C@@H](C(C)C)C(=O)N[C@@H](Cc2ccc(O)cc2)C(=O)N[C@@H](Cc2ccccc2)C(=O)N1)C(=O)N[C@H](C(=O)N[C@@H](Cc1c[nH]c2ccccc12)C(=O)O)[C@@H](C)CC [ET-1, reference compound]
increase in IUP (male mongrel dogs; [4]): 15 mmHg
peak pressor effect on DBP (male mongrel dogs; [4]): 25 mmHg
decrease in DBP (initial depressor effect) (male mongrel dogs; ET-1 1 nmole/kg intra-arterial, before antagonist, average of both dogs): 15 mmHg
